Measured values: article PMC12268802, “The herbicidal natural product phosphonothrixin is an inhibitor of the riboflavin biosynthetic enzyme L‐3,4‐dihydroxy‐2‐butanone‐4‐phosphate synthase” (Pest Management Science, 2025)

Columns and labels:
[1] = test system: imidazoleglycerol phosphate dehydratase; design: method as in PMID 12228396; details: cited from earlier work
[2] = cited from earlier work
EPSP synthase = test system: EPSP synthase; design: method as in PMID 1939260; details: from several higher plants; cited from earlier work
Lemna gibba = Lemna gibba growth assay; format: in vivo; details: 7 days
Method: Growth experiments were performed in sterile 6‐well cell culture plates and were initiated by transferring four Lemna gibba fronds per well to 5 mL of K‐medium[22] pH 4.8 containing 1% (w/v) sucrose and a selected concentration of phosphonothrixin (1) and riboflavin determined from previous experiments. The cell culture plates were incubated for 7 days in a growth cabinet at 22 °C and a continuous photon flux density of 75 μE/m^2s.

[3] = biological target: dihydroxy‐acid dehydratase; design: method as in PMID 29995859; details: Arabidopsis enzyme; cited from earlier work
DHBPS activity assay = substrate: O=C(CO)[C@H](O)[C@H](O)COP(=O)(O)O; assay: DHBPS activity assay; format: biochemical, Arabidopsis thaliana; details: other: substrate varied 0 to 2 mM; pH 6.5
Method: DHBPS activity assays were out carried in 96‐well microtiter plates using a modification of the procedure previously described.[18] The reaction mixture contained 100 mM MES (2‐morpholinoethanesulfonic acid) buffer pH 6.5, 20 mM MgCl2, 20 mM D‐ribose‐5‐phosphate (Sigma‐Aldrich R7750), 0.02% Tween‐20, 0.2 mg BSA, 0.5 μg of spinach phosphoriboisomerase (Sigma‐Aldrich P9752) and DHBPS enzyme in a final volume of 110 μL. Assays were initiated by adding enzyme and terminated after 120 min incubation at rt by the addition of 90 μL of a solution of 3.5% α‐naphthol and 0.2% creatine in 2 N NaOH. After an additional 45 min incubation at rt the absorbance was determined at 540 nm. The pI50‐value for inhibition by phosphonothrixin (1) was determined with the XLFit Excel add‐in version 4.3.1 curve fitting program of ID Business Solutions Limited. […] Reaction velocities were fitted to the Michaelis–Menten equation with the XLFit curve fitting program.

[4] = 50 μM riboflavin in the presence of 100 μM phosphonothrixin

Question: What does the source list for O=P(O)(O)[C@H]1CCC[C@@](O)(c2nc[nH]n2)C1 (relative stereo) [IRL1803, trans‐(3‐hydroxy‐3‐(1H‐1,2,4‐triazol‐3‐yl)cyclohexyl)‐phosphonic acid]?
Answer: potency against imidazoleglycerol phosphate dehydratase [1]: nanomolar inhibitor; application rate required for a significant herbicidal effect [2]: ~1 kg ha^−1

Question: Which “IC50-values, EPSP synthase” value (EPSP synthase) does the source give for O=C(O)CNCP(=O)(O)O [glyphosate] here?
Answer: single and double‐digit micromolar range

Question: With Cc1cc2nc3c(=O)[nH]c(=O)nc-3n(C[C@H](O)[C@H](O)[C@H](O)CO)c2cc1C [riboflavin] as the molecule, how does the “bleaching of Lemna gibba fronds” value (Lemna gibba; 50 μM riboflavin alone) read?
Answer: some mild bleaching of the fronds

Question: What about the “growth of Lemna gibba” value (Lemna gibba; 50 μM riboflavin alone) of the same molecule?
Answer: did not affect the growth

Question: What about the “reversal of bleaching of Lemna gibba” value (Lemna gibba; [4]) of the same molecule?
Answer: reversed the bleaching phenotype to the level observed in the experiment where only riboflavin had been applied

Question: And the “reversal of growth inhibition of Lemna gibba” value (Lemna gibba; [4])?
Answer: almost completely alleviated the growth inhibition

Question: For aspterric acid, which IC50 [3] is on record?
Answer: 500 nM

B1: AtDHBPS (Arabidopsis thaliana) (protein)
chain: MFVAEDDDFELDLPTPGFSSIPEAIEDIRQGKLVVVVDDEDRENEGDLVMAAQLATPEAMAFIVRHGTGIVCVSMKEDDLERLHLPLMVNQKENEEKLSTAFTVTVDAKHGTTTGVSARDRATTILSLASRDSKPEDFNRPGHIFPLKYREGGVLKRAGHTEASVDLTVLAGLDPVGVLCEIVDDDGSMARLPKLREFAAENNLKVVSIADLIRYRRKRDKLVERASKGGRADPAFLYKVVINSKLEGKPIPNPLLGLDSTRTGHHHHHH
notes: made in house; host or cells: Escherichia coli BL21(DE3)
Question: Which Km (DHBPS activity assay) does the source give for B1 here?
Answer: 150 ± 20 µM
